Test results as given in patent US20260042755A1, “GPR6 INVERSE AGONISTS” (MapLight Therapeutics, Inc., priority 2022, published 2026).

Columns and labels:
[1] = target: T1, GPR6 (Homo sapiens, UniProt P46095); experiment: GPR6 antagonist functional cAMP assay (LANCE Ultra cAMP TR-FRET, CHO cells stably expressing GPR6); format: cell-based
T1 construct: expressed in transfected cells; host or cells: CHO cells
In short: (§1)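 Cells in Krebs-Ringer buffer with 0.1% BSA and 150 μM Ro 20-1724 PDE inhibitor were exposed to compounds for 45 min at 37 °C (0.1% DMSO). cAMP was read by TR-FRET at 665 nm; IC50s came from 4-parameter fits normalized to DMSO and reference compound.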

[2] = target: T2, GPR3 (Homo sapiens, UniProt P46089); experiment: GPR3 antagonist functional cAMP assay (LANCE Ultra cAMP TR-FRET, CHO cells stably expressing GPR3); format: cell-based
T2 construct: expressed in transfected cells; host or cells: CHO cells
T2 sequence (P46089 whole entry, species assumed): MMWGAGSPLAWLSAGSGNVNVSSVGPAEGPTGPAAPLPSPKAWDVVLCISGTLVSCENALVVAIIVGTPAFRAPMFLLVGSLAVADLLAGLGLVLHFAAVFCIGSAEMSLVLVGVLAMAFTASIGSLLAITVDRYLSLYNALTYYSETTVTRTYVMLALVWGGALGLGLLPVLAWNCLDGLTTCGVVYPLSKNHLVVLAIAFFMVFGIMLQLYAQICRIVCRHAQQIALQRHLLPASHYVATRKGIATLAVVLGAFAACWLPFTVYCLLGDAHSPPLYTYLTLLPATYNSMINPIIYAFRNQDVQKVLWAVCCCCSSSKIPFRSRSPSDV
In short: as §1

[3] = CHO cells stably expressing GPR6, cAMP assay (Example 24)
[4] = CHO cells stably expressing GPR3, cAMP assay (Example 24)
[5] = procedure as described in Example 24
[6] = CHO cells stably expressing GPR6, cAMP assay
[7] = CHO cells stably expressing GPR3, cAMP assay

T1 sequence (P46095 whole entry): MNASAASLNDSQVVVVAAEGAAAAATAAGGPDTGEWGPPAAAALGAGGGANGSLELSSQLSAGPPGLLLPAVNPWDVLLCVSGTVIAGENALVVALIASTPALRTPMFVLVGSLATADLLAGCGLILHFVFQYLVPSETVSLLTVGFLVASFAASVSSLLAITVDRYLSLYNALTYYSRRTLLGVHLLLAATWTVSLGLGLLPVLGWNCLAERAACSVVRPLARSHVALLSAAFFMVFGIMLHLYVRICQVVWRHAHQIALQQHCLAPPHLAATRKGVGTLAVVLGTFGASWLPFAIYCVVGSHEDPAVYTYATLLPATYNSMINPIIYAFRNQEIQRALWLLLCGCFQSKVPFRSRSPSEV

IC50 ([1]; procedure of Example 24) [µM]	IC50 ([2]; procedure of Example 24) [µM]	IC50 [1, 3] [µM]	IC50 [2, 4] [µM]	Compound	also measured
0.1 to 1	1 to 30			Cn1cc(-c2nc3cc(C(C)(O)CO)ncc3nc2N2CCC(Oc3ccc(F)cc3F)CC2)cn1 (stereo not drawn) [Compound 645, 2-{3-[4-(2,4-difluorophenoxy)-1-piperidyl]-2-(1-methyl-4-pyrazolyl)-1,4,6-triaza-7-naphthyl}-1,2-propanediol]	
		< 0.1	1 to 30	CC(=O)N1CCc2nc(N3CCC(Oc4ccc(F)cc4F)CC3)c(-c3ccnc(N)n3)nc2C1 [Compound 475, 1-[3-(2-aminopyrimidin-4-yl)-2-[4-(2,4-difluorophenoxy)piperidin-1-yl]-5H,6H,7H,8H-pyrido[3,4-b]pyrazin-6-yl]ethan-1-one]	
				CC(=O)N1CCc2nc(N3CCC(Oc4ccc(F)cc4F)CC3)c(-c3cnc4n3CCN(C(C)=O)C4)nc2C1 [Compound 17, 1-(3-(6-acetyl-2-(4-(2,4-difluorophenoxy)piperidin-1-yl)-5,6,7,8-tetrahydropyrido[3,4-b]pyrazin-3-yl)-5,6-dihydroimidazo[1,2-a]pyrazin-7(8H)-yl)ethan-1-one]	IC50 [1, 5]: 1 to 30 µM; IC50 [2, 5]: 1 to 30 µM
1 to 30	1 to 30			CC(=O)N1CCc2nc(N3CCN(Cc4ccc(C#N)cc4F)CC3)c(-c3cnn(C)c3)nc2C1 [Compound 356, 4-({4-[6-acetyl-3-(1-methyl-1H-pyrazol-4-yl)-5H,6H,7H,8H-pyrido[3,4-b]pyrazin-2-yl]piperazin-1-yl}methyl)-3-fluorobenzonitrile]	
		0.1 to 1	1 to 30	CC(=O)N1CCc2nc(N3CCC(Oc4ccc(F)cc4F)CC3)c(-c3cncc(N)n3)nc2C1 [Compound 465, 1-[3-(6-aminopyrazin-2-yl)-2-[4-(2,4-difluorophenoxy)piperidin-1-yl]-5H,6H,7H,8H-pyrido[3,4-b]pyrazin-6-yl]ethan-1-one]	
		< 0.1	0.1 to 1	CC(=O)N1CCc2nc(N3CCC(Oc4cc(Cl)ccc4Cl)CC3)c(-c3cnn(C)c3)nc2C1 [Compound 430, 1-{2-[4-(2,5-dichlorophenoxy)piperidin-1-yl]-3-(1-methyl-1H-pyrazol-4-yl)-5H,6H,7H,8H-pyrido[3,4-b]pyrazin-6-yl}ethan-1-one]	
		1 to 30	1 to 30	Cn1cc(-c2nc3cnc(O)cc3nc2N2CCC(Oc3ccc(F)cc3F)CC2)cn1 [Compound 395, 2-(4-(2,4-difluorophenoxy)piperidin-1-yl)-3-(1-methyl-1H-pyrazol-4-yl)pyrido[3,4-b]pyrazin-7-ol]	
1 to 30	1 to 30			CC(C)(O)C(O)c1cncc2nc(-c3cnn(C(F)F)c3)c(N3CCN(Cc4ccc(F)cc4F)CC3)nc12 (stereo not drawn) [Compound 679, 1-{3-[1-(difluoromethyl)-4-pyrazolyl]-2-{4-[(2,4-difluorophenyl)methyl]-1-piperazinyl}-1,4,6-triaza-8-naphthyl}-2-methyl-1,2-propanediol]	
0.1 to 1	1 to 30			CC(C)(O)C(C)(O)c1cc2nc(-c3cnn(C4CC4)c3)c(N3CCN(Cc4ccc(F)cc4F)CC3)nc2cn1 (stereo not drawn) [Compound 653, 2-[2-(1-cyclopropyl-4-pyrazolyl)-3-{4-[(2,4-difluorophenyl)methyl]-1-piperazinyl}-1,4,6-triaza-7-naphthyl]-3-methyl-2,3-butanediol]	
		0.1 to 1	1 to 30	Cn1cc(-c2nc3cnc(C#N)cc3nc2N2CCN(Cc3ccc(F)cc3F)CC2)cn1 [Compound 216, 2-{4-[(2,4-difluorophenyl)methyl]piperazin-1-yl}-3-(1-methyl-1H-pyrazol-4-yl)pyrido[3,4-b]pyrazine-7-carbonitrile]	
0.1 to 1	1 to 30			CC(C)(O)C(O)c1cc2nc(-c3cnn(C(F)F)c3)c(N3CCC(=Cc4ccc(F)cc4F)CC3)nc2cn1 (single isomer, unassigned) [Compound 766]	
		1 to 30	1 to 30	Cn1cc(-c2nc3cncc(C#N)c3nc2N2CCC(Oc3ccc(F)cc3F)CC2)cn1 [Compound 436, 2-[4-(2,4-difluorophenoxy)piperidin-1-yl]-3-(1-methyl-1H-pyrazol-4-yl)pyrido[3,4-b]pyrazine-8-carbonitrile]	
				Cn1cc(-c2nc3cnc([C@@](C)(O)CO)cc3nc2N2CCC(Oc3ccc(F)cc3F)CC2)cn1 (single isomer, unassigned) [Compound 564]	IC50 [1, 6]: 0.1 to 1 µM; IC50 [2, 7]: 1 to 30 µM
0.1 to 1	1 to 30			CO[C@H](CO)c1cc2nc(N3CCC(Oc4ccc(F)cc4F)CC3)c(-c3cnn(C)c3)nc2cn1 (single isomer, unassigned) [Compound 641]	
		1 to 30	1 to 30	O=C(CN1CCOCC1)N1CCc2nc(N3CCC(Oc4ccc(F)cc4F)CC3)c(-c3cnn(C4CCCCO4)c3)nc2C1 (stereo not drawn) [Compound 202, 1-{2-[4-(2,4-difluorophenoxy)piperidin-1-yl]-3-[1-(oxan-2-yl)-1H-pyrazol-4-yl]-5H,6H,7H,8H-pyrido[3,4-b]pyrazin-6-yl}-2-(morpholin-4-yl)ethan-1-one]	
< 0.1	1 to 30			Cn1cc(-c2nc3cnc([C@@H](O)C(C)(C)O)cc3nc2N2CCC(=Cc3ccc(F)cc3F)CC2)cn1 (single isomer, unassigned) [Compound 719]	
0.1 to 1	1 to 30			CC(=O)N1CCc2nc(N3CCN(Cc4ccc(F)cc4F)CC3)c(-c3cnn(C)c3)nc2C1 [Compound 352, 1-(2-{4-[(2,4-difluorophenyl)methyl]piperazin-1-yl}-3-(1-methyl-1H-pyrazol-4-yl)-5H,6H,7H,8H-pyrido[3,4-b]pyrazin-6-yl)ethan-1-one]	
		≥ 30	≥ 30	Fc1ccc(-c2ncc3n2CCN(c2nc4ccncc4nc2-c2cn[nH]c2)C3)c(F)c1 [Compound 130, 4-{2-[3-(2,4-difluorophenyl)-5H,6H,7H,8H-imidazo[1,5-a]pyrazin-7-yl]pyrido[3,4-b]pyrazin-3-yl}-1H-pyrazole]	
				CCn1cc(-c2nc3cnc([C@@H](O)C(C)(C)O)cc3nc2N2CCC(Oc3ccc(F)cc3F)CC2)cn1 (single isomer, unassigned) [Compound 570]	IC50 [1, 6]: < 0.1 µM; IC50 [2, 7]: 1 to 30 µM
0.1 to 1	1 to 30			CC(=O)N1CCc2nc(N3CCC(Oc4ccc(F)cc4F)CC3)c(C3=CCOC3)nc2C1 [Compound 306, 1-{2-[4-(2,4-difluorophenoxy)piperidin-1-yl]-3-(2,5-dihydrofuran-3-yl)-5H,6H,7H,8H-pyrido[3,4-b]pyrazin-6-yl}ethan-1-one]	
		0.1 to 1	1 to 30	Cn1cc(-c2nc3cnc(CO)cc3nc2N2CCN(Cc3ccc(F)cc3F)CC2)cn1 [Compound 194, (2-{4-[(2,4-difluorophenyl)methyl]piperazin-1-yl}-3-(1-methyl-1H-pyrazol-4-yl)pyrido[3,4-b]pyrazin-7-yl)methanol]	
		1 to 30	1 to 30	CC(=O)N1CCc2nc(N3CCC(Oc4ccc(F)cc4F)CC3)c(C3CCNCC3)nc2C1 [Compound 265, 1-{2-[4-(2,4-difluorophenoxy)piperidin-1-yl]-3-(piperidin-4-yl)-5H,6H,7H,8H-pyrido[3,4-b]pyrazin-6-yl}ethan-1-one]	
				Cn1cc(-c2nc3ccc(C(O)C(C)(C)O)nc3nc2N2CCN(Cc3ccc(F)cc3F)CC2)cn1 (stereo not drawn) [Compound 569, 1-(3-{4-[(2,4-difluorophenyl)methyl]-1-piperazinyl}-2-(1-methyl-4-pyrazolyl)-1,4,5-triaza-6-naphthyl)-2-methyl-1,2-propanediol]	IC50 [1, 6]: 1 to 30 µM; IC50 [2, 7]: ≥ 30 µM
0.1 to 1	1 to 30			CC(C)(O)[C@@H](O)c1cc2nc(-c3cn[nH]c3)c(N3CCN(Cc4ccc(F)cc4F)CC3)nc2cn1 (single isomer, unassigned) [Compound 800]	
1 to 30	1 to 30			Fc1ccc(F)c(CN2CCN(c3nc4cnc(-c5cnn(C(F)F)c5)cc4nc3-c3cnn(C(F)F)c3)CC2)c1 [Compound 774, 2,7-bis [1-(difluoromethyl)-4-pyrazolyl]-3-{4-[(2,5-difluorophenyl)methyl]-1-piperazinyl}-1,4,6-triazanaphthalene]	
				CC(=O)N1CCc2nc(N3CCC(Oc4ccc(F)cc4F)CC3)c(-c3cnc4n3CCNC4)nc2C1 [Compound 24, 1-(2-(4-(2,4-difluorophenoxy)piperidin-1-yl)-3-(5,6,7,8-tetrahydroimidazo[1,2-a]pyrazin-3-yl)-7,8-dihydropyrido[3,4-b]pyrazin-6(5H)-yl)ethan-1-one]	IC50 [1, 5]: 1 to 30 µM; IC50 [2, 5]: 0.1 to 1 µM
				CC(=O)N1CCc2nc(N3CCC(Oc4ccc(F)cc4F)CC3)c(-c3ccc(=O)n(C)c3)nc2C1 [Compound 21, 5-{6-acetyl-2-[4-(2,4-difluorophenoxy)piperidin-1-yl]-5H,6H,7H,8H-pyrido[3,4-b]pyrazin-3-yl}-1-methyl-1,2-dihydropyridin-2-one]	IC50 [1, 5]: 1 to 30 µM; IC50 [2, 5]: 1 to 30 µM
				CCn1cc(-c2nc3c(nc2N2CCN(C(=O)c4ccc(Cl)c(C)c4)CC2)CCN(C(C)=O)C3)cn1 [Compound 550, 1-{2-[4-(4-chloro-3-toluoyl)-1-piperazinyl]-3-(1-ethyl-4-pyrazolyl)-5,6,7,8-tetrahydro-1,4,6-triaza-6-naphthyl}-1-ethanone]	IC50 [1, 6]: 1 to 30 µM; IC50 [2, 7]: 1 to 30 µM
1 to 30	≥ 30			CC(C)(O)C(=O)c1cncc2nc(-c3cnn(C(F)F)c3)c(N3CCN(Cc4ccc(F)cc4F)CC3)nc12 [Compound 693, 1-{3-[1-(difluoromethyl)-4-pyrazolyl]-2-{4-[(2,4-difluorophenyl)methyl]-1-piperazinyl}-1,4,6-triaza-8-naphthyl}-2-hydroxy-2-methyl-1-propanone]	
				COc1ccc(OC2CCN(c3nc4c(nc3-c3cnn(C)c3)CN(C(C)=O)CC4)CC2)cc1F [Compound 502, 1-{2-[4-(3-fluoro-4-methoxyphenoxy)-1-piperidyl]-3-(1-methyl-4-pyrazolyl)-5,6,7,8-tetrahydro-1,4,6-triaza-6-naphthyl}-1-ethanone]	IC50 [1, 6]: 0.1 to 1 µM; IC50 [2, 7]: 1 to 30 µM
